Data from patent publication US20250177357A1, “METHODS FOR TREATING HYPERTROPHIC CARDIOMYOPATHY” (priority 2021, published 2025).

Key:
Format in all cases: in vivo, human
[1] = Phase 1 plasma pharmacokinetics, multiple-ascending dose cohorts; settings: for CLss/F, mean ± SD: n = 6
Method: Multiple-ascending dose (MAD) cohorts. The MAD cohorts also used a randomized, double-blind, placebo-controlled, sequential design.
(§1) Pharmacokinetic analyses. For all study groups, blood samples for PK assessment were obtained pre-dose, up to 12 times daily on day 1, and then at regular intervals throughout the study. Blood samples were collected according to the following schedule: SAD Cohorts: Day 1: pre-dose and 0.25, 0.5, 1, 1.5, 2, 2.5, 3, 4, 6, 8, 12, 16, 24, 36, 48, 72, 96, and 216 h post dose. MAD Cohorts (14-day Dosing): Day 1: pre-dose and 0.25, 0.5, 1, 1.5, 2, 2.5, 3, 4, 6, 8, and 12 h post dose; Days 2, 4, 5, 6, and 9: pre-dose (corresponding to trough samples following dosing on days 1, 3, 4, 5, and 8) and 1.5 h post dose; Days 3, 7, 8, 10, 11, 12, and 13: pre-dose (corresponding to trough samples following dosing on days 2, 6, 7, 9, 10, 11, and 12); Day 14: pre-dose and 0.25, 0.5, 1.5, 2, 2.5, 3, 4, 6, 8, 12, 16, 24, 36, 48, 72, and 168 h post dose. MAD Cohort (17-Day Dosing): Day 1: pre-dose and 0.25, 0.5, 1, 1.5, 2, 2.5, 3, 4, 6, 8, and 12 h post dose; Days 2, 4, 5, 6, and 9: pre-dose (corresponding to trough samples following dosing on days 1, 3, 4, 5, and 8) and 1.5 h post dose; Days 3, 7, 8, 10, 11, 12, 13, 14, 15, and 16: pre-dose (corresponding to trough samples following dosing on days 2, 6, 7, 9, 10, 11, and 12); Day 17: pre-dose and 0.25, 0.5, 1.5, 2, 2.5, 3, 5, 7, 9, 12, 24, 36, 48, 72, and 168 h post dose. CYPD6-PM Cohort: Day 1: pre-dose and 0.25, 0.5, 1, 1.5, 2, 2.5, 3, 4, 6, 8, 12, 16, 24, 36, 48, 72, 96, 216, 312, and 552 h post dose. Food-Effect Cohort: Day 1: pre-dose and 0.25, 0.5, 1, 1.5, 2, 2.5, 3, 4, 6, 8, 12, 16, 24, 36, 48, 72, 96, 144, and 216 h post dose. Standard non-compartmental methods were used to calculate PK parameters using Phoenix® WinNonlin® Version 7.0; actual sample collection times were utilized.
(§2) For the MAD cohort, the parameters were AUC24 and Cmax on day 1, plus AUC to the […] (AUCtau) and Cmax on day 14 or 17. The statistical linear relationship between the ln-transformed PK parameters and the ln-transformed dose was verified by including the quadratic (ln Dose)^2 and cubic (ln Dose)^3 effects. […] The dose-proportionality analysis was performed using SAS® PROC MIXED.
An analysis of variance (ANOVA) model was conducted separately for each dose level; day was included as the fixed effect. Helmert contrasts were developed such that each time-point was compared with the mean of the subsequent time-points.

[2] = test system: patients with symptomatic obstructive HCM (oHCM); test: Phase 2 trial in oHCM, Cohorts 1 and 2: echocardiography, NYHA class, biomarkers; settings: for Average ejection fraction: at 10 weeks
Description: Cohort 3 included patients receiving disopyramide.
Since patient characteristics vary substantially in this disease, individualized dose titration to a pharmacodynamics (PD) response (reduction of the LVOT-G to <30 mmHg with preservation of LVEF>50%) was employed to maximize efficacy and safety.
Body weight was ≥45 kg at screening; 4. […] Adequate acoustic windows for echocardiography; 6. Had LVOT-G during screening as follows for Cohorts 1 and 2: (a) resting gradient≥50 mmHg; or (b) resting gradient≥30 mmHg and <50 mmHg with post-Valsalva LVOT-G≥50 mmHg; or as follows for Cohort 3: persistent resting LVOT obstruction (≥30 mmHg) and provoked LVOT obstruction (≥50 mmHg); 7. Left ventricular ejection fraction (LVEF)≥60% at screening; 8. […] Able to complete all screening procedures; and 13. Taking stable doses of disopyramide for >4 weeks prior to screening (Cohort 3 only).
Aortic stenosis or fixed subaortic obstruction; 2. […] Has been treated with septal reduction therapy (surgical myectomy or percutaneous alcohol septal ablation) or has plans for either treatment during the study period; 6. […] Hemoglobin<10.0 g/dL at screening; 18. […] Has received prior treatment with CK-3773274 or is currently receiving mavacamten; 21.
Patients up-titrated to Dose 2 if either of the following conditions were met on echocardiography: (1) resting LVOT-G≥30 mmHg and the biplane LVEF≥50%; or (2) resting LVOT-G<30 mmHg, post-Valsalva LVOT-G≥50 mmHg, and the biplane LVEF≥50%. Otherwise, the patient remains on Dose 1. If LVEF is <50% at Week 2, the patient was down-titrated to placebo.
Patients were escalated to the next higher dose if either of the following conditions were met on echocardiography: (1) resting LVOT-G≥30 mmHg and the biplane LVEF≥50%; or (2) resting LVOT-G<30 mmHg, post-Valsalva LVOT-G≥50 mmHg, and the biplane LVEF≥50%. Otherwise, the patient remained on the same dose. If LVEF was <50% at Week 4, the patient was returned to a prior dose level or to placebo if the patient was on Dose 1.
Echocardiograms obtained every 2 weeks and 2 weeks after the last dose were analyzed for several key structural and physiologic metrics and N-terminal prohormone of brain natriuretic peptide (NT-proBNP).
Initial results from the clinical study included data from two sequentially conducted cohorts, Cohort 1 (n=21) and Cohort 2 (n=20) which randomized treatment of patients 2:1 to CK-274 or placebo. […] Overall, treatment duration for each patient in the study was 10 weeks with an echocardiogram conducted 2 weeks after the last dose.

[3] = Phase 1 plasma pharmacokinetics, single-ascending dose cohorts
Method: Single-ascending dose (SAD) cohorts. The SAD portion of the study used a randomized, double-blind, placebo-controlled, sequential, escalating-dose design, in which participants received single-ascending oral doses of the study drug. Seven cohorts were dosed in sequence (FIG. 2).
as §1, §2

Question: With `CCc1nc(-c2ccc3c(c2)CC[C@H]3NC(=O)c2cnn(C)c2)no1` [aficamten, (R)—N-(5-(5-ethyl-1,2,4-oxadiazol-3-yl)-2,3-dihydro-1H-inden-1-yl)-1-methyl-1H-pyrazole-4-carboxamide] as the compound, how does the “Steady state achieved by the end of day” value ([1]; 5-mg and 7.5-mg doses once daily) read?
Answer: 12 days

Question: What about the “Steady state achieved by the end of day” value ([1]; 10-mg dose once daily) of the same compound?
Answer: 10 days

Question: What about the CLss/F, mean ± SD ([1]; Day 14, 5 mg qd × 14 Days) of the same compound?
Answer: 3.9 ± 0.9 L/h

Question: What about the CLss/F, mean ± SD ([1]; Day 14, 10 mg qd × 14 Days) of the same compound?
Answer: 3.9 ± 0.8 L/h

Question: And the CLss/F, mean ± SD ([1]; Day 17, 7.5 mg qd × 17 Days)?
Answer: 3.1 ± 0.7 L/h

Question: And the “Time within which steady state is achieved” value ([1]; once-daily dosing)?
Answer: ≤ 2 weeks

Question: What about the “Patients with complete hemodynamic response / target goal (resting gradient <30 mmHg and post-Valsalva gradient <50 mmHg)” value ([2]; Cohort 1 (5, 10, 15 mg), Week 10, 11 out of 14) of the same compound?
Answer: 79%

Question: And the Average ejection fraction ([2]; Cohort 1 (n=14), baseline 72.8 (73±6))?
Answer: 67±9%

Question: And the “Patients with complete hemodynamic response / target goal (resting gradient <30 mmHg and post-Valsalva gradient <50 mmHg)” value ([2]; Cohort 2 (10, 20, 30 mg), Week 10, 13 out of 14)?
Answer: 93%

Question: And the Average ejection fraction ([2]; Cohort 2 (n=14), baseline 75.4 (75±6))?
Answer: 64±8%

Question: And the “Patients converted from NYHA class III to class II or I” value ([2]; Cohorts 1 and 2)?
Answer: 7 patients

Question: And the “Time of occurrence of reductions in LVOT-G after initiating treatment” value ([2]; Cohorts 1 and 2)?
Answer: within two weeks

Question: And the “Time of peak reduction in LVOT-G” value ([2]; Cohorts 1 and 2)?
Answer: within two to six weeks of the end of dose titration

Question: And the “Patients who improved from NYHA class III to I” value ([2]; pooled aficamten Cohorts 1 and 2)?
Answer: one

Question: What about the “LVMI mean difference vs placebo” value ([2]; week 10, p=0.063) of the same compound?
Answer: 8.1 g/m^2

Question: What about the “Maximum time to maximum observed concentration across all participants” value ([3]; SAD cohorts) of the same compound?
Answer: 4.0 h

Question: What about the “CL/F, mean ± SD” value ([3]; single oral dose 3 mg, n = 5) of the same compound?
Answer: 4.2 ± 3.1 L/h

Question: What about the “CL/F, mean ± SD” value ([3]; single oral dose 10 mg, n = 4) of the same compound?
Answer: 3.0 ± 0.7 L/h

Question: What about the “CL/F, mean ± SD” value ([3]; single oral dose 25 mg, n = 6) of the same compound?
Answer: 3.6 ± 0.5 L/h

Question: And the “CL/F, mean ± SD” value ([3]; single oral dose 40 mg, n = 5)?
Answer: 3.4 ± 0.6 L/h

Question: And the “CL/F, mean ± SD” value ([3]; single oral dose 50 mg, n = 9)?
Answer: 3.8 ± 1.1 L/h
